Data on 5 molecules can be found in patent publication US6528489B1, “Mycotoxin derivatives as antimitotic agents” (Ergon Pharmaceuticals LLC, priority 1999, dated 2003).

The subject of one assay is bFGF-stimulated HUVECs. The assay is described as follows: bFGF-induced proliferation of human endothelial cells (HUVEC proliferation assay). In kind it is cell-based. The note with it: 20 ng/ml bFGF, 48 hours, read-out: IC50 of Antiproliferative Effect. An excerpt: Proliferation assays familiar to those skilled in the art using human umbilical vein endothelial cells (HUVECs) were employed in order to determine the effect of various antibiotics on the growth of bFGF-stimulated HUVECs.
The materials for this experiments included endothelial cells (HUVECS) and media for their proliferation (Media 200, fetal bovine serum (FBS), gelatin, bFGF) (Paragon Bioservices, Baltimore, Md.), and Cell Titer 96 for detection of cell proliferation (Paragon Bioservices, Baltimore, Md.). Antibiotics aurovertin B, citreoviridin, oligomycin A, oligomycin B, oligomycin C, and efrapeptin D were all obtained from Sigma Chemical Company (St. Louis, Mo.).
HUVECs were routinely cultured to confluency in Media 200 containing 10% FBS. The cells were then trypsinized and plated in a 96-well plate pre-coated with 1% gelatin at 5000 cells per well per 100 μL Media 200 containing 2% FBS. The cells were allowed to adhere for 24 hours. Subsequently, the media were aspirated and fresh Media 200 containing 0.5% FBS were added to the wells. Addition of various concentrations of antibiotics in the presence and absence of 20 ng/ml bFGF followed. The assay plates were incubated at 37° C., 5% CO2 for 48 hours. At the end of the incubation period, cell proliferation was determined using cell counting (Cell Counter Model Z1, Coulter Incorporation, Miami, Fla.) or spectrophotometry. In the later case, the assay plates were incubated with Cell Titer 96 for 2 hours and the absorbance was recorded at 490 nm.

The test system of a further assay is VEGF-stimulated HUVECs. The assay is described as follows: VEGF-induced migration of human endothelial cells (modified Boyden chamber). Type of assay: cell-based. Conditions: 5 ng/ml VEGF, six hours. An excerpt: A migration assay familiar to those skilled in the art using vascular endothelial growth factor (VEGF)-stimulated HUVECs was employed to determine the effect of aurovertin B on endothelial cell migration.
The endothelial cells were routinely cultured as previously described.
Modified Boyden chambers in a 48-well format consisting of upper and lower wells separated by an 8-microns pore polycarbonate filter coated with collagen were used to study VEGF-induced migration of HUVECs (Paragon Bioservices, Baltimore, Md.). The endothelial cells were added to the lower wells and the migrating factor (5 ng/ml VEGF) was added to the upper wells. HUVECs were allowed to migrate from the lower to the upper wells for six hours at 37° C., 5% CO2. At the end of the incubation period, the filters were removed and washed gently. The cells on the filters were then fixed, stained with hematoxylin, and counted with a light microscope. The values obtained represent the mean of ten fields.

Assay [1] deals with murine B16F10 melanoma tumors. As to the kind of experiment: Growth of murine B16F10 melanoma tumors in C57 mice. In kind it is in vivo. The note with it: 2 mg/kg i.p. every day for 9 days. How it is done: The effect of aurovertin B and efrapeptin D on the growth of murine B16F10 melanoma tumors (ATCC, Rockville, Md.) was investigated. Groups of four C57 mice (The Jackson Laboratory, BarHarbor, Me.) were injected subcutaneously with 5×10^4 B16F10 cells (The Jackson Laboratory, BarHarbor, Me.). The mice were subsequently treated i.p. with 2 mg/kg aurovertin B, 0.4 mg/kg efrapeptin D, or vehicle control. The treatment was initiated three days after the tumor inoculation and continued every day for 9 days. The tumor growth was recorded at the end of the experiment.

Each structure is given as a SMILES string.

In the case of `CC[C@@H]1/C=C/C=C/C[C@H](C)[C@H](O)[C@](C)(O)C(=O)[C@H](C)[C@@H](O)[C@H](C)C(=O)[C@H](C)[C@@H](O)[C@H](C)/C=C/C(=O)O[C@H]2[C@@H](C)[C@@H](CC1)O[C@@]1(CC[C@@H](C)[C@@H](C[C@H](C)O)O1)[C@@H]2C` [Oligomycin A, oligomycin A], the half-maximal inhibitory concentration (IC50) in the assay with bFGF-stimulated HUVECs was determined as 5 µM.
Still for that read-out and setting: to `CC[C@H]1/C=C/C=C/C[C@@H](C)[C@H](O)[C@@](C)(O)C(=O)[C@@H](C)[C@H](O)[C@@H](C)C(=O)[C@@H](C)[C@H](O)[C@@H](C)/C=C/C(=O)O[C@@H]2[C@H](C)[C@H](CC1)O[C@@]1(O[C@@H](C[C@@H](C)O)[C@@H](C)CC1=O)[C@H]2C` [Oligomycin B, oligomycin B] belongs 5 µM; to `COc1cc(=O)oc(/C=C/C=C/C=C/C(C)=C/[C@@]2(C)O[C@H](C)[C@](C)(O)[C@H]2O)c1C` [Citreoviridin, citreoviridin], 10 µM.
In the case of `CC[C@H]1O[C@]2(C)[C@H](OC(C)=O)[C@@]1(C)O[C@@H](/C=C/C=C/C=C/c1oc(=O)cc(OC)c1C)[C@@H]2O` [Aurovertin, aurovertin B], in the assay on VEGF-stimulated HUVECs, the “inhibition of VEGF-induced migration of HUVECs (in words)” value is “inhibited VEGF-induced migration of HUVECs”. Besides, the IC50 with bFGF-stimulated HUVECs worked out at 10 µM. For the same molecule, the “mice that exhibited measurable, growing tumors at the end of the treatment” value in assay [1] stood at 50%. In addition, in assay [1] (started three days after tumor inoculation), the “Number of mice that developed measurable tumors/Number of mice injected with tumor cells” value is listed as 2/4.
For `CC[C@@H]1C=CC=CC[C@H](C)[C@@H](O)[C@@H](C)C(=O)[C@H](C)[C@@H](O)[C@H](C)C(=O)[C@H](C)[C@@H](O)[C@H](C)C=CC(=O)O[C@H]2[C@@H](C)[C@@H](CC1)O[C@@]1(CC[C@@H](C)[C@@H](C[C@H](C)O)O1)[C@@H]2C` [Oligomycin C, oligomycin C], the IC50 with bFGF-stimulated HUVECs was 5 µM.
